Test results: the supplement of paper PMC10307832

What was measured:
Experiment in all cases: relative viability (nuclei count vs DMSO), 5 days (fraction); higher = more cells survive
[1] = compound: CCCS(=O)(=O)Nc1ccc(F)c(C(=O)c2c[nH]c3ncc(-c4ccc(Cl)cc4)cc23)c1F [Vemurafenib] + CS(=O)(=O)N1CCN(Cc2cc3nc(-c4cccc5[nH]ncc45)nc(N4CCOCC4)c3s2)CC1 [Pictilisib] (partner 1 µM)
Procedure, shortened: (§1)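 One day after seeding in 1536-well plates, lung cancer cell lines were dosed by pin tool. Dosing was either single-drug or a fixed anchor-drug dose plus five library-drug doses (not always all listed) in √10 steps. After 5 days, nuclei were stained in one fix-and-stain step and counted on 4× images, and relative viability is the nuclei count of treated wells over that of vehicle wells, given as the median of duplicate plates.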

[2] = compound: CCCS(=O)(=O)Nc1ccc(F)c(C(=O)c2c[nH]c3ncc(-c4ccc(Cl)cc4)cc23)c1F [Vemurafenib] + C[C@]1(O)C[C@@H](c2nc(-c3ccc4ccc(-c5ccccc5)nc4c3)c3c(N)nccn32)C1 [Linsitinib] (partner 1 µM)
Procedure, shortened: as §1

[3] = compound: Cc1nc(NC(=O)N2CCC[C@H]2C(N)=O)sc1-c1ccnc(C(C)(C)C(F)(F)F)c1 [Alpelisib] + COc1cccc2cc(-c3nc([C@H]4CC[C@H](C(=O)O)CC4)n4ncnc(N)c34)[nH]c12 [OSI-027] (partner 0.5 µM)
Procedure, shortened: as §1

[4] = compound: Cc1nc(NC(=O)N2CCC[C@H]2C(N)=O)sc1-c1ccnc(C(C)(C)C(F)(F)F)c1 [Alpelisib] + N=C(N)NC(=N)NCCc1ccccc1 [Phenformin] (partner 250 µM)
Procedure, shortened: as §1

Cell Line	relative viability ([1]; first compound 0.03162 µM)	relative viability ([1]; first compound 1 µM)	relative viability ([2]; first compound 0.03162 µM)	relative viability ([2]; first compound 0.1 µM)	relative viability ([2]; first compound 0.3162 µM)	relative viability ([2]; first compound 1 µM)	relative viability ([3]; first compound 0.04 µM)	relative viability ([3]; first compound 0.1265 µM)	relative viability ([3]; first compound 0.4 µM)	relative viability ([3]; first compound 1.265 µM)	relative viability ([3]; first compound 4 µM)	relative viability ([4]; first compound 0.04 µM)	relative viability ([4]; first compound 0.1265 µM)	relative viability ([4]; first compound 0.4 µM)	relative viability ([4]; first compound 1.265 µM)	relative viability ([4]; first compound 4 µM)	relative viability ([1]; first compound 0.1 µM)	relative viability ([1]; first compound 0.3162 µM)
CAL-12T	0.407	0.406	0.723	0.549	1.02	0.819	0.67	0.449	0.823	0.411	0.403	0.545	0.593	0.699	0.543	0.494		
201T	0.651	0.677	0.994	0.969	1.06	0.989	0.811	0.566	0.661	0.471	0.402	0.437	0.485	0.428	0.348	0.349	0.67	0.702
SK-LU-1	0.545	0.532	0.93	0.958	0.915	1.03	0.378	0.297	0.29	0.219	0.201	0.495	0.498	0.434	0.408	0.358	0.567	
LC-2-ad	0.436	0.432	0.801	0.755	0.873	0.749	0.783	0.692	0.712	0.478	0.416	0.603	0.549	0.586	0.338	0.427	0.396	0.635
NCI-H1793	0.442	0.379	0.877		0.893	0.897	0.284	0.24	0.228	0.195	0.161	0.365	0.322	0.365	0.301	0.238		0.477
LCLC-103H	0.585	0.59	1.09	1.04	1.06	1.18	0.486	0.439	0.435	0.372	0.335	0.344	0.347	0.311	0.245	0.272	0.506	0.584
NCI-H1944	0.318	0.307	1.17	0.872	1.33	1.15	0.365	0.401	0.332	0.281	0.223	0.194	0.214	0.182	0.16	0.138	0.326	0.331
NCI-H650	0.818	0.771	0.709	0.83	0.297	0.595	0.552	0.435	0.488	0.357	0.325	0.469	0.429	0.534	0.349	0.369	0.834	0.534
SK-MES-1	0.322	0.347	1.06	0.892	1.03	1.07	0.57	0.541	0.553	0.442	0.351	0.662	0.635	0.755	0.608	0.675	0.192	0.354
